US8785439B2, “2,5,7-substituted oxazolopyrimidine derivatives” (Sanofi, priority 2010, dated 2014)

Target: T1, human Edg-1 receptor (Homo sapiens, UniProt P21453)
T1 construct: FLAG (N); expressed in transfected cells; membrane preparation
Assay: GTP-γ-S assay using human Edg-1 receptors (SPA, CHO Flp-In cell membrane preparation)
Assay type: biochemical
Settings: test compound at 10 μM; high control 10 μM S1P regarded as 100% activation; background-corrected; triplicate; read-out: % Activation (Edg-1 receptor activation in percent of the activation by 10 μM S1P)
Source text: Determination of the Pharmacological Activity A) GTP-γ-S Assay Using Human Edg-1 Receptors
In order to determine the Edg-1 receptor activation by the compounds of the invention, a GTP-γ-S (guanosine 5′-[γ-thio]triphosphate) assay for G-protein coupled receptor binding based on the scintillation proximity assay principle was used, employing a cell membrane preparation from a CHO Flp-In cell line which constitutively overexpresses the human Edg-1 receptor.
The Flp-In™ expression system (Invitrogen, cat. no. K6010-01) allows the generation of stable mammalian cell lines into which the gene of interest has been integrated through homologous recombination at a specific genomic location called Flp Recombination Target (FRT) site by means of a Flp recombinase encoded by the pOG44 expression plasmid. The integration of the pcDNA5/FRT expression construct into the Flp-In host cell line genome results in the transcription of the gene of interest. The stably transfected cells become hygromycin-resistant.
One day prior to transfection, 200 000 Flp-In-CHO cells were seeded in Ham F-12 medium (Invitrogen, cat. no. 31765) supplemented with 10% fetal calf serum (FCS; Perbio Science, cat. no. SH30068.03) in a 6-well plate and incubated at 37° C./5% CO2 overnight. Using the FuGENE® 6 transfection reagent (Roche, cat. no. 11988387001), cells were cotransfected with the Flp recombinase expression plasmid pOG44 and a modified plasmid additionally containing the edg-1 gene (accession no. NM_001400) termed as pcDNA5-FRT-TO_nFLAG_DEST-EDG-1 with a 9:1 ratio. To obtain the modified pcDNA5-FRT-TO_nFLAG_DEST plasmid, the Invitrogen plasmid pcDNA5/FRT/TO (Invitrogen, cat. no. V6520-20) was adapted to the Gateway® (Invitrogen) cloning system by inserting a Gateway cassette containing attR recombination sites flanking a ccdB gene and a chloramphenicol-resistance gene (Gateway conversion system, Invitrogen, cat. no. 11828-029). In addition a FLAG tag epitope was added before the 5′ att recombination site to allow recombinant expression of N-terminally FLAG-tagged proteins.
For the transfection of one well, 1.08 μg of pOG44 and 0.12 μg of pcDNA5-FRT-TO_nFLAG_DEST-EDG-1 were mixed with 100 μl of serum-free Ham F-12 medium containing 6 μl of FuGENE® 6 transfection reagent. After 20 min of incubation, the transfection reagent/DNA complex was distributed dropwise on the cells. The cells were incubated for 24 h at 37° C. Then the cells from 3 wells each were transferred to a T75 flask (Greiner Cellstar®, cat. no. 658175) containing Ham F-12 medium supplemented with 10% of FCS but without antibiotic and were incubated another 24 h. 48 h after transfection, the medium was replaced by selection medium (Ham F-12 supplemented with 10% of FCS and 300 μg/ml of hygromycin B (Invitrogen, cat. no. 10687-010)). The medium was exchanged every 2 to 3 days until a resistant population of cells had grown. […] After 2 weeks of selection, the cells were transferred into T175 flasks (Greiner Cellstar®, cat. no. 660175) and cultivated for batch production. Cells were harvested from the culture flasks by short treatment (2 to 5 min) with Accutase (PAA, cat. no. L11-007), resuspended in selection medium (see above) and centrifuged at 200×g for 5 min. Cells were resuspended in a mixture of 90% of FCS and 10% of dimethylsulfoxide and stored frozen in liquid nitrogen.
A membrane preparation was obtained by standard methods from the afore-described CHO Flp-In cell line constitutively overexpressing the human Edg-1 receptor. Briefly, the cryopreserved cells were taken in culture and grown until confluency in T175 cell culture flasks (Becton Dickinson, cat. no. 35 5001). […]

T1 sequence (P21453 whole entry): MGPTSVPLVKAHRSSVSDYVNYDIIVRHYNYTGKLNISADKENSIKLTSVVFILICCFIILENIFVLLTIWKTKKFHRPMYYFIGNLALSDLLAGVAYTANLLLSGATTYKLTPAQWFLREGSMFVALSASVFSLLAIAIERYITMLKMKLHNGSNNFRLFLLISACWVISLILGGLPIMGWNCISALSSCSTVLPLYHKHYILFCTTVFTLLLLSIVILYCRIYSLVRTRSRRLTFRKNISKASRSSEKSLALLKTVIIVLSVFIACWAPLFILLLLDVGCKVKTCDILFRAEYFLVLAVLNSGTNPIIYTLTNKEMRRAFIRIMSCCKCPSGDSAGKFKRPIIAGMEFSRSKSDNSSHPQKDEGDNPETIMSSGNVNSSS

## CCCOc1nc(Oc2ccccc2)nc2oc(-c3cc(C)ccc3F)nc12 [Example 33, 2-(2-fluoro-5-methyl-phenyl)-5-phenoxy-7-propoxy-oxazolo[5,4-d]pyrimidine]
  activation at 10 µM: 124%

## CCCOc1nc(Sc2ccc(C)cn2)nc2oc(-c3cc(F)ccc3Cl)nc12 [Example 155, 2-(2-chloro-5-fluoro-phenyl)-5-(5-methyl-pyridin-2-ylsulfanyl)-7-propoxy-oxazolo[5,4-d]pyrimidine]
  activation at 10 µM: 62%

## CCCOc1nc(Oc2ccc(Cl)cc2Cl)nc2oc(-c3cccc(C)c3)nc12 [Example 119, 5-(2,4-dichloro-phenoxy)-7-propoxy-2-(3-methyl-phenyl)-oxazolo[5,4-d]pyrimidine]
  activation at 10 µM: 116%

## C=CCCCOc1nc(OCCC)c2nc(-c3cccc(C)c3)oc2n1 [Example 9, 5-Pent-4-enyloxy-7-propoxy-2-(3-methylphenyl)-oxazolo[5,4-d]pyrimidine]
  activation at 10 µM: 87%

## CCCOc1nc(Oc2ccc(Cl)c(C)c2)nc2oc(-c3cccc(C)c3)nc12 [Example 140, 5-(4-chloro-3-methyl-phenoxy)-7-propoxy-2-(3-methyl-phenyl)-oxazolo[5,4-d]pyrimidine]
  activation at 10 µM: 60%

## CC1(C)OCC(COc2nc(OCC3CC3)c3nc(-c4cc(F)ccc4Cl)oc3n2)O1 (stereo not drawn) [Example 34, 2-(2-chloro-5-fluoro-phenyl)-7-cyclopropylmethoxy-5-(2,2-dimethyl-[1,3]dioxolan-4-ylmethoxy)-oxazolo[5,4-d]pyrimidine]
  activation at 10 µM: 99%

## CCCOc1nc(Oc2cc(Cl)ccc2C)nc2oc(-c3cccc(C)c3)nc12 [Example 115, 5-(5-chloro-2-methyl-phenoxy)-7-propoxy-2-(3-methyl-phenyl)-oxazolo[5,4-d]pyrimidine]
  activation at 10 µM: 96%

## CCOc1nc(Sc2ccc(F)c(F)c2)nc2oc(-c3cccc(C)c3)nc12 [Example 12, 5-(3,4-difluoro-phenylsulfanyl)-7-ethoxy-2-(3-methyl-phenyl)-oxazolo[5,4-d]pyrimidine]
  activation at 10 µM: 84%

## CCCOc1nc(Oc2ccc(SC(F)(F)F)cc2)nc2oc(-c3cccc(F)c3)nc12 [Example 82, 2-(3-fluoro-phenyl)-7-propoxy-5-(4-trifluoromethylsulfanyl-phenoxy)-oxazolo[5,4-d]pyrimidine]
  activation at 10 µM: 107%

## CCCOc1nc(Oc2c(F)cccc2F)nc2oc(-c3cccc(C)c3)nc12 [Example 97, 5-(2,6-difluoro-phenoxy)-7-propoxy-2-(3-methyl-phenyl)-oxazolo[5,4-d]pyrimidine]
  activation at 10 µM: 124%

## CCCOc1nc(Oc2ccccc2F)nc2oc(-c3cc(C)c(O)c(C)c3)nc12 [Example 6, 5-(2-Fluoro-phenoxy)-2-(4-hydroxy-3,5-dimethyl-phenyl)-7-propoxy-oxazolo[5,4-d]pyrimidine]
  activation at 10 µM: 105%

## Cc1cc(Oc2nc(OCC3CC3)c3nc(-c4cc(F)ccc4Cl)oc3n2)n(C)n1 [Example 11, 2-(2-chloro-5-fluoro-phenyl)-7-cyclopropylmethoxy-5-(2,5-dimethyl-2H-pyrazol-3-yloxy)-oxazolo[5,4-d]pyrimidine]
  activation at 10 µM: 105%

## CCCOc1nc(Oc2ccc(Cl)cc2OC)nc2oc(-c3cccc(F)c3)nc12 [Example 60, 5-(4-chloro-2-methoxy-phenoxy)-2-(3-fluoro-phenyl)-7-propoxy-oxazolo[5,4-d]pyrimidine]
  activation at 10 µM: 80%

## CCOc1nc(Oc2ccccc2F)nc2oc(-c3cc(C)c(O)c(C)c3)nc12 [Example 47, 4-[7-ethoxy-5-(2-fluoro-phenoxy)-oxazolo[5,4-d]pyrimidin-2-yl]-2,6-dimethyl-phenol]
  activation at 10 µM: 119%

## CCCOc1nc(Sc2ccccc2)nc2oc(-c3cc(F)ccc3Cl)nc12 [Example 150, 2-(2-chloro-5-fluoro-phenyl)-5-phenylsulfanyl-7-propoxy-oxazolo[5,4-d]pyrimidine]
  activation at 10 µM: 92%

## CCCOc1nc(Oc2ccc(C)cc2OC)nc2oc(-c3cccc(C)c3)nc12 [Example 135, 5-(2-methoxy-4-methyl-phenoxy)-7-propoxy-2-(3-methyl-phenyl)-oxazolo[5,4-d]pyrimidine]
  activation at 10 µM: 1%

## CCCOc1nc(NC2CCC(C)CC2)nc2oc(-c3cc(F)ccc3Cl)nc12 (stereo not drawn) [Example 113, [2-(2-chloro-5-fluoro-phenyl)-7-propoxy-oxazolo[5,4-d]pyrimidin-5-yl]-(4-methyl-cyclohexyl)-amine]
  activation at 10 µM: 52%

## CCCOc1nc(NC2CCCCC2)nc2oc(-c3cc(F)ccc3Cl)nc12 [Example 149, [2-(2-chloro-5-fluoro-phenyl)-7-propoxy-oxazolo[5,4-d]pyrimidin-5-yl]-cyclohexyl-amine]
  activation at 10 µM: 70%

## CCCOc1nc(OC2CCCCC2)nc2oc(-c3cccc(F)c3)nc12 [Example 62, 5-cyclohexyloxy-2-(3-fluoro-phenyl)-7-propoxy-oxazolo[5,4-d]pyrimidine]
  activation at 10 µM: 111%

## Cc1cc(Oc2nc(OCC3CC3)c3nc(-c4cccc(F)c4)oc3n2)n(C)n1 [Example 102, 7-cyclopropylmethoxy-5-(2,5-dimethyl-2H-pyrazol-3-yloxy)-2-(3-fluoro-phenyl)-oxazolo[5,4-d]pyrimidine]
  activation at 10 µM: 130%

## CCCOc1nc(Oc2ccccc2)nc2oc(-c3cccc(C)c3)nc12 [Example 51, 5-phenoxy-7-propoxy-2-(3-methyl-phenyl)-oxazolo[5,4-d]pyrimidine]
  activation at 10 µM: 110%

## CCCOc1nc(Oc2cccc(S(N)(=O)=O)c2)nc2oc(-c3cccc(C)c3)nc12 [Example 20, 3-(7-propoxy-2-(3-methyl-phenyl)-oxazolo[5,4-d]pyrimidin-5-yloxy)-benzenesulfonamide]
  activation at 10 µM: 83%

## CCCOc1nc(NN2CCOCC2)nc2oc(-c3cccc(C)c3)nc12 [Example 65, morpholin-4-yl-(7-propoxy-2-(3-methyl-phenyl)-oxazolo[5,4-d]pyrimidin-5-yl)-amine]
  activation at 10 µM: 105%

## CCCOc1nc(OC2CCC(C(F)(F)F)CC2)nc2oc(-c3cc(F)ccc3Cl)nc12 (stereo not drawn) [Example 154, 2-(2-chloro-5-fluoro-phenyl)-7-propoxy-5-(4-trifluoromethyl-cyclohexyloxy)-oxazolo[5,4-d]pyrimidine]
  activation at 10 µM: 87%

## CCCOc1nc(Oc2cc(C)ccc2C)nc2oc(-c3cccc(C)c3)nc12 [Example 133, 5-(2,5-dimethyl-phenoxy)-7-propoxy-2-(3-methyl-phenyl)-oxazolo[5,4-d]pyrimidine]
  activation at 10 µM: 92%

## CCCOc1nc(Oc2ccc(C)cc2Cl)nc2oc(-c3cccc(C)c3)nc12 [Example 90, 5-(2-chloro-4-methyl-phenoxy)-7-propoxy-2-(3-methyl-phenyl)-oxazolo[5,4-d]pyrimidine]
  activation at 10 µM: 67%

## CCCOc1nc(Oc2ccc(C)c(F)c2)nc2oc(-c3cccc(F)c3)nc12 [Example 81, 5-(3-fluoro-4-methyl-phenoxy)-2-(3-fluoro-phenyl)-7-propoxy-oxazolo[5,4-d]pyrimidine]
  activation at 10 µM: 89%

## CCCOc1nc(Oc2cc(Cl)ccc2C)nc2oc(-c3cccc(F)c3)nc12 [Example 67, 5-(5-chloro-2-methyl-phenoxy)-2-(3-fluoro-phenyl)-7-propoxy-oxazolo[5,4-d]pyrimidine]
  activation at 10 µM: 84%

## CCCOc1nc(OC2CCOCC2)nc2oc(-c3cccc(C)c3)nc12 [Example 71, 7-propoxy-5-(tetrahydro-pyran-4-yloxy)-2-(3-methyl-phenyl)-oxazolo[5,4-d]pyrimidine]
  activation at 10 µM: 102%

## CCCOc1nc(Oc2ccc(F)cc2F)nc2oc(-c3cccc(C)c3)nc12 [Example 95, 5-(2,4-difluoro-phenoxy)-7-propoxy-2-(3-methyl-phenyl)-oxazolo[5,4-d]pyrimidine]
  activation at 10 µM: 107%
